Laboratory results from patent publication US9012655B2, “Antimicrobial/adjuvant compounds and methods” (Denouamed, Inc., priority 2011, dated 2015).
In brackets after ≈: the same amount, converted by molar mass.

How the values were obtained:
AcpS enzyme = AcpS enzyme (Escherichia coli, UniProt P24224); assay: Measurement of AcpS inhibition ([3H]acetyl-CoA incorporation into apo-ACP); format: biochemical; settings: % activity vs blank-subtracted counts; for % AcpS activity at 50 uM / activity at 50 µM: test compound 50 uM; for % AcpS activity @ 500 uM / remaining activity at 500 µM: test compound 500 uM
Chain of AcpS enzyme (P24224 whole entry): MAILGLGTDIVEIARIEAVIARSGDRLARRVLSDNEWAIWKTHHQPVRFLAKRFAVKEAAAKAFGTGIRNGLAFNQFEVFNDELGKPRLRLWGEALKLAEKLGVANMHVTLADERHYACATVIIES
Description: [^3H]Acetyl-CoA was mixed as 1 volume of Perkin Elmer NET290 radiolabeled stock (e.g. 0.1 mCi/ml, 3.7 Ci/mmol in Na-acetate, pH 4.5-5.0=27 μM) with 1.2 volumes of 1 mM unlabelled acetyl-CoA (Sigma). Trichloroacetic acid was prepared as a 10% w/v solution. Bovine serum albumin was prepared as a 25 mg/ml solution in water. DTT was prepared as a 50 mM solution in water.
• 1. A standard reaction contained the following in a total volume of 10 μl:
• 2. Tubes were incubated at RT. [^3H]acetyl-CoA was added last to start the reaction. To stop the reaction, 2 μl was removed to a 1.5-ml microfuge tube containing 800 μl cold 10% TCA. Up to four time points were collected for each reaction, e.g. at 5 min, 10 min, 30 min, and 60 min. • 3. 20 μl of 25 mg/ml BSA was added to each tube, mixed and incubated on ice for 10 min, then centrifuged at 12,000 g for 5 min to form a pellet. Supernatant was removed using P1000. • 4. Each pellet was washed twice with 800 μl of cold 10% TCA each time, then centrifuged at 12,000 g for 5 min after each wash. The supernatant was discarded. Each pellet was resuspended in 50 μl of formic acid. The suspension was transferred to a scintillation vial and radioactivity was measured in 2 ml of liquid scintillation cocktail.
The random (stochastic) error in scintillation counting is proportional to the square root of the counts (not dpm) accumulated in the counting period; i.e. 10% for 100, 3.3% for 1,000, 1% for 10,000, etc. Provided radioactive counts (dpm) are in the thousands, the assay provides useful data. Results are reported in terms of % activity with respect to the blank-subtracted counts for working substrate. A % activity of less than about 40% is indicative of AcpS enzyme inhibition by the test compound at that concentration.

[1] = system: Methicillin-Resistant Staph. aureus (MRSA); assay: MIC, NCCLS M7-A6 broth microdilution, MRSA; format: cell-based; settings: 16 to 20 h, 35 degrees Celsius; for MIC: Staphylococcus aureus, MRSA
Description: (§1) Susceptibilities to the compounds were determined using the National Committee for Clinical Laboratory Standards (NCCLS) M7-A6 broth microdilution method. Cation-adjusted Mueller-Hinton broth (Ca^2+, 25 μg/mL; Mg^2+, 12.5 μg/mL) microdilution panels were prepared to contain antimicrobial doubling dilution concentrations of an appropriate range. DMSO (dimethylsulfoxide) controls were incorporated into the panel to mimic the quantity of DMSO used in dissolving some of the compounds at the higher concentrations. Each final panel well volume was 100 μL with a bacterial inoculum of 5×10^5 CFU (colony forming units)/mL of the relevant bacterium. Panels were read following 16 to 20 h of incubation at 35 degrees Celsius in ambient air. The MIC (minimum inhibitory concentration) was defined as the lowest concentration of antimicrobial inhibiting visible growth.

E. coli D22 = assay: MIC, NCCLS M7-A6 broth microdilution, E. coli D22; format: cell-based; settings: 35 degrees Celsius; for MIC E coli D22: 16 to 20 h; for MIC: Escherichia coli, D22, 16 to 20 h
Description: as §1

[2] = system: Streptococcus pneumoniae Group A; assay: MIC against Streptococcus pneumoniae Group A; format: cell-based; settings: initial measurement, Todd Hewitt broth
Description: as §1
Generally following the procedure of Example 9, but using Todd Hewitt broth (beef heart digest) rather than Mueller-Hinton broth, MICs were initially measured against Streptococcus pneumoniae Group A for compounds of the present invention as follows: […]

SMILES	% AcpS activity at 50 uM (AcpS enzyme) [%]	% AcpS activity @ 500 uM (AcpS enzyme) [%]	MIC MRSA [1] [µM]	MIC E coli D22 (E. coli D22) [µM]	activity at 50 µM (AcpS enzyme) [%]	remaining activity at 500 µM (AcpS enzyme) [%]	MIC [1] [µM]	MIC (E. coli D22) [µM]	MIC [2] [µM]
Cc1cc(Cl)ccc1-c1cc(-c2nn[nH]n2)cc(-c2ccc(Cl)cc2C)c1 [DNM0457]	1.56	0	8 (≈ 3.16 µg/mL)	60 (≈ 23.7 µg/mL)					
CCc1ccccc1-c1cc(-c2nnn[nH]2)sc1-c1ccccc1CC [DNM0541, 5-(4,5-Bis(2-ethylphenyl)thiophen-2-yl)-1H-tetrazole]					63.1	0.3	30 (≈ 10.8 µg/mL)	> 125	
Clc1ccccc1-c1cc(-c2nnn[nH]2)sc1-c1ccccc1Cl [DNM0538, 5-(4,5-Bis(2-chlorophenyl)thiophen-2-yl)-1H-tetrazole]					82.2	0.58	30 (≈ 11.2 µg/mL)	> 125	
c1ccc(-c2cc(-c3nnn[nH]3)sc2-c2ccccc2-c2ccsc2)c(-c2ccsc2)c1 [DNM0559, 5-(4,5-Bis(2-(thiophen-3-yl)phenyl)thiophen-2-yl)-1H-tetrazole]					7.01	0.5	2 (≈ 0.937 µg/mL)	> 125	
c1ccc(-c2ccccc2-c2cc(-c3nnn[nH]3)sc2-c2ccccc2-c2ccccc2)cc1 [DNM0489, 5-(4,5-Di(biphenyl-2-yl)thiophen-2-yl)-1H-tetrazole]					17.9	0	2 (≈ 0.913 µg/mL)	> 125	
Cc1ccc(-c2ccc(-c3ccc(C)c4ccccc34)c(-c3nnn[nH]3)c2)c2ccccc12 [DNM0446, 5-(2,5-Bis(4-methylnaphthalen-1-yl)phenyl)-1H-tetrazole]						25.4	4 (≈ 1.71 µg/mL)	> 125	
Cc1ccc(-c2cc(-c3nn[nH]n3)cc(-c3ccc(C)cc3Br)c2)c(Br)c1 [DNM0511]	14.36	0	8 (≈ 3.87 µg/mL)	>125					
Cc1c(-c2nnn[nH]2)sc(-c2ccc(C)c3ccccc23)c1-c1ccc(C)c2ccccc12 [DNM0620, 5-(4,5-Bis(4-methylnaphthalen-1-yl)-3-methylthiophen-2-yl)-1H-tetrazole]									< 0.25
Cc1c(-c2nnn[nH]2)sc(-c2ccc(Cl)cc2C(C)C)c1-c1ccc(Cl)cc1C(C)C [DNM0631, 5-(4,5-Bis(4-chloro-2-isopropylphenyl)-3-methylthiophen-2-yl)-1H-tetrazole]									< 0.25
CC(C)(C)c1ccc(-c2cc(-c3nnn[nH]3)sc2-c2ccc(C(C)(C)C)cc2)cc1 [DNM0546, 5-(4,5-Bis(4-tert-butylphenyl)thiophen-2-yl)-1H-tetrazole]					37.2	5.16	4 (≈ 1.67 µg/mL)	> 125	
FC(F)(F)c1ccccc1-c1cc(-c2nnn[nH]2)sc1-c1ccccc1C(F)(F)F [DNM0549, 5-(4,5-Bis(2-(trifluoromethyl)phenyl)thiophen-2-yl)-1H-tetrazole]					71.3	0.48	30 (≈ 13.2 µg/mL)	> 125	
c1ccc(-c2cc(-c3nnn[nH]3)sc2-c2ccccc2)cc1 [DNM0535]	92.62	3.48	125 (≈ 38 µg/mL)	>125					
Cc1ccccc1-c1cc(-c2nnn[nH]2)sc1-c1ccccc1C [DNM0531, 5-(4,5-Bis(2-methylphenyl)thiophen-2-yl)-1H-tetrazole]					96.8	4.38	60 (≈ 19.9 µg/mL)	> 125	
Cc1ccc(-c2cc(-c3nn[nH]n3)cc(-c3cc(Cl)ccc3N(C)C)c2)c2ccccc12 [DNM0514]	5.73	0.14	4 (≈ 1.76 µg/mL)	>125					
Cc1ccc(-c2cc(-c3ccc(Cl)cc3)cc(-c3nnn[nH]3)c2)c2ccccc12 [DNM0480, 5-(4′-Chloro-5-(4-methylnaphthalen-1-yl)biphenyl-3-yl)-1H-tetrazole]					7.35	2.04	4 (≈ 1.59 µg/mL)	125 (≈ 49.6 µg/mL)	
Cc1ccc(-c2cc(-c3nnn[nH]3)sc2-c2ccc(C)c(Cl)c2)cc1Cl [DNM0504, 5-(4,5-Bis(3-chloro-4-methylphenyl)thiophen-2-yl)-1H-tetrazole]					7.33	0.16	125 (≈ 50.2 µg/mL)	125 (≈ 50.2 µg/mL)	
Brc1ccccc1-c1sc(-c2nnn[nH]2)cc1-c1ccccc1C1CCCC1 [DNM0571]	8.19	0.11	8 (≈ 3.61 µg/mL)	>125					
CC(C)c1ccc(-c2cc(-c3nnn[nH]3)sc2-c2ccc(C(C)C)cc2)cc1 [DNM0512, 5-(4,5-Bis(4-isopropylphenyl)thiophen-2-yl)-1H-tetrazole]					37.3	0.7	8 (≈ 3.11 µg/mL)	> 125	
Cc1cc(Cl)ccc1-c1ccc(-c2ccc(Cl)cc2C)c(-c2nnn[nH]2)c1 [DNM0447, 5-(2,5-Bis(4-chloro-2-methylphenyl)phenyl)-1H-tetrazole]					32.6	0.47	15 (≈ 5.93 µg/mL)	> 125	
c1ccc(Oc2ccc(-c3ccc(-c4ccc(Oc5ccccc5)cc4)c(-c4nn[nH]n4)c3)cc2)cc1 [DNM0453]		23.76	8 (≈ 3.86 µg/mL)	>125					
Cc1ccc(-c2cc(-c3nnn[nH]3)sc2-c2ccc(C)c3ccccc23)c2ccccc12 [DNM0486, 5-(4,5-Bis(4-methylnaphthalen-1-yl)thiophen-2-yl)-1H-tetrazole]					0.82	0.16	2 (≈ 0.865 µg/mL)	> 125	
Cc1ccc(-c2cc(-c3nn[nH]n3)cc(-c3ccc(C)cc3-c3cccc(Cl)c3)c2)c(-c2cccc(Cl)c2)c1 [DNM0520]		20.86	2 (≈ 1.09 µg/mL)	>125					
c1ccc(-c2cc(-c3nnn[nH]3)sc2-c2ccccc2-c2ccoc2)c(-c2ccoc2)c1 [DNM0560, 5-(4,5-Bis(2-(furan-3-yl)phenyl)thiophen-2-yl)-1H-tetrazole]					63.6	0.06	15 (≈ 6.55 µg/mL)	> 125	
